The record followed here is patent US5462954A, “Substituted phenyl phenol leukotriene antagonists” (Eli Lilly and Company, priority 1994, dated 1995).

SMILES strings stand for the structures. Counter-ions that a name gives are not always drawn.

Experiment [1] deals with T1, human synovial phospholipase A2 (PLA2) (Homo sapiens, UniProt P14555).
T1 sequence (P14555 21-144): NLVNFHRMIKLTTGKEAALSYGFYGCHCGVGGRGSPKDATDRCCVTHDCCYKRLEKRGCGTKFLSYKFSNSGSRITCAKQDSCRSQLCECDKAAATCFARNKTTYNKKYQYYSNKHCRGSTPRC
Nature of the experiment: in vitro inhibition of human synovial phospholipase A2 (PLA2). It counts as biochemical.

Experiment [2] addresses T2, human cytosolic phospholipase A2 (PLA2) (Homo sapiens, UniProt P47712).
T2 sequence (P47712 1-749): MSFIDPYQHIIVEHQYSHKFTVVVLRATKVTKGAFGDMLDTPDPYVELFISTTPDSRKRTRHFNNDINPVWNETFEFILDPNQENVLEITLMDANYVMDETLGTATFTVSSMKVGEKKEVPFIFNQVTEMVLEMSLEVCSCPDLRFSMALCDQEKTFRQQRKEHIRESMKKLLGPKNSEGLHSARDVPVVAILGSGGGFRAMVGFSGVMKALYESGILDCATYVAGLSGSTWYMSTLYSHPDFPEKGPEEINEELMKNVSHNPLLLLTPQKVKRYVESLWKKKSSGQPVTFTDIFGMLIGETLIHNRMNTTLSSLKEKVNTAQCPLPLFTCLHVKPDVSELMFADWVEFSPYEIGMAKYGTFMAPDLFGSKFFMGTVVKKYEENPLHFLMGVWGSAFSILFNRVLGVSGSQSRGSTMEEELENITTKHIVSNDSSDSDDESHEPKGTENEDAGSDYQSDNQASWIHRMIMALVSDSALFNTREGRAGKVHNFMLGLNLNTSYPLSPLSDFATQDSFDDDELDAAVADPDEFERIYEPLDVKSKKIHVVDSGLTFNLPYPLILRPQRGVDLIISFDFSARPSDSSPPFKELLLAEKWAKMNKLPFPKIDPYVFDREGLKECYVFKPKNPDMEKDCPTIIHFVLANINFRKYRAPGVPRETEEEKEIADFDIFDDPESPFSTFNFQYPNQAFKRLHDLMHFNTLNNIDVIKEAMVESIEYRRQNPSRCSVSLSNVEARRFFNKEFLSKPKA
In words: in vitro inhibition of human cytosolic phospholipase A2 (PLA2). In kind it is biochemical.

Experiment [3] has as its target binding of tritiated LTB4 to guinea pig lung membranes (Cavia porcellus, UniProt H0VYV8). In words: biochemical. The settings on record: for Ki: read-out: pKi (mean -log Ki) (converted).
Protocol: The effectiveness of compounds of Formula I to inhibit the binding of tritiated LTB4 to guinea pig lung membranes was determined as follows.
The binding reaction was terminated by the addition of 1 mL ice cold wash buffer (25 mM Tris-HCl, pH 7.5) followed immediately by vacuum filtration over Whatman GF/C glass fiber filters using a Brandel (Gaithersburg, Md.) 48 place harvester. The filters were washed three times with 1 mL of wash buffer. Retained radioactivity was determined by liquid scintillation counting at 50% counting efficiency using Ready Protein Plus cocktail (Beckman, Fullerton, Calif.). Nondisplaceable binding was determined in the presence of 1 μM LTB4 and was usually less than 10% of total binding. […] The data reported below is the mean -log Ki, otherwise known as the pKi, for n experiments.

binding of tritiated LTB4 to guinea pig lung membranes, sequence (H0VYV8 1-348): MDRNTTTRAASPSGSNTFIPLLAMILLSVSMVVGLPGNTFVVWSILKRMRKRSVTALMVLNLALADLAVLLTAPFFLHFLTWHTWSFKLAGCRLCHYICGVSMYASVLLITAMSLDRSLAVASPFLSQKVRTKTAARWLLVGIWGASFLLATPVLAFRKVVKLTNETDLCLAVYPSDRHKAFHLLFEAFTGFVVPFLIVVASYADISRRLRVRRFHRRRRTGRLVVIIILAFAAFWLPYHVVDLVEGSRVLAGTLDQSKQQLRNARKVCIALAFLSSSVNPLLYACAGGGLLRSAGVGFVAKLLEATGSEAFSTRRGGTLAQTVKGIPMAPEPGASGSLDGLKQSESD

For the compound `CCc1cc(-c2ccccc2)c(O)cc1OCCCCCC(C)(C)c1nn[nH]n1.[Na]`, in experiment [1], the “inhibition of human synovial PLA2” value was “in vitro inhibitors”. The “inhibition of human cytosolic PLA2” value in experiment [2] is on record as “in vitro inhibitors”. On to `CCCc1c(OCCCOc2cc(O)c(-c3ccc(F)cc3)cc2CC)ccc2c1OC(C(=O)O)CC2` (centres unmarked) [Example 55, 8-Propyl-7-[3-[4-(4-fluorophenyl)-2-ethyl-5-hydroxyphenoxy]propoxy]-3,4-dihydro-2H-1-benzopyran-2-carboxylic acid], for which the Ki (commonly a measure of affinity in units of concentration, obtained from inhibition or displacement) in experiment [3] was 2.95 nM. In experiment [1], the “inhibition of human synovial PLA2” value was “in vitro inhibitors”. The “inhibition of human cytosolic PLA2” value in experiment [2] was “in vitro inhibitors”. On to `CCCc1c(OCCCOc2cc(O)c(-c3ccccc3)cc2CC)cccc1OC(C)C(=O)O` (centres unmarked) [Example 56, 2-[3-[3-[(5-Ethyl-2-hydroxy[1,1'-biphenyl]-4-yl)oxy]propoxy]-2-propylphenoxy]propanoic acid], for which the Ki in experiment [3] was 9.33 nM. For the same compound, the “inhibition of human synovial PLA2” value in experiment [1] is recorded as “in vitro inhibitors”. Also, the “inhibition of human cytosolic PLA2” value in experiment [2] is “in vitro inhibitors”. As for `CCc1cc(-c2ccc(F)cc2)c(O)cc1OCCCOc1cccc(Oc2ccccc2C(=O)O)c1Cc1ccccc1` [Example 76, 2-[2-(Phenylmethyl)-3-[3-[2-ethyl-5-hydroxy-4-(4-fluorophenyl)phenoxy]propoxy]phenoxy]benzoic acid], the Ki in experiment [3] is 53.7 nM. On to `CCCc1c(OCCCOc2cc(O)c(-c3ccc(F)cc3)cc2CC)cccc1Oc1ccccc1CC(=O)O` [Example 77, 2-[2-Propyl-3-[3-[2-ethyl-5-hydroxy-4-(4-fluorophenyl)phenoxy]propoxy]phenoxy]phenylacetic acid], for which the Ki in experiment [3] is 8.13 nM. On the same count and under the same terms, then `CCCc1c(OCCCOc2cc(O)c(-c3ccc(F)cc3)cc2CC)cccc1C(=O)c1ccccc1C(=O)O` [Example 78, 2-[2-Propyl-3-[3-[2-ethyl-5-hydroxy-4-(4-fluorophenyl)phenoxy]propoxy]benzoyl]benzoic acid], with 9.55 nM; and `CCCc1c(Cc2ccccc2C(=O)O)cccc1OCCCOc1cc(O)c(-c2ccc(F)cc2)cc1CC` [Example 79, 2-[[2-Propyl-3-[3-[2-ethyl-5-hydroxy-4-(4-fluorophenyl)phenoxy]propoxy]phenyl]methyl]benzoic acid], with 10.5 nM; and `CCCc1c(OCCCOc2cc(O)c(-c3ccc(F)cc3)cc2CC)cccc1Sc1ccccc1C(=O)O` [Example 80, 2-[2-Propyl-3-[3-[2-ethyl-4-(4-fluorophenyl)-5-hydroxyphenoxy]propoxy]thiophenoxy]benzoic acid], with 11.2 nM. Regarding `CCCc1c(OCCCOc2cc(O)c(-c3ccc(F)cc3)cc2CC)cccc1[S+]([O-])c1ccccc1C(=O)O` (centres unmarked) [Example 81, 2-[2-Propyl-3-[3-[2-ethyl-4-(4-fluorophenyl)-5-hydroxyphenoxy]propoxy]phenylsulfinyl]benzoic acid], the Ki in experiment [3] is 1.35 nM. On the same count and under the same terms, then `CCCc1c(OCCCOc2cc(O)c(-c3ccc(F)cc3)cc2CC)cccc1S(=O)(=O)c1ccccc1C(=O)O` [Example 82, 2-[2-Propyl-3-[3-[2-ethyl-4-(4-fluorophenyl)-5-hydroxyphenoxy]propoxy]phenylsulfonyl]benzoic acid hydrate], with 10.2 nM; and `CCc1cc(-c2ccc(F)cc2)c(O)cc1OCCCOc1ccc(C#CCCC(=O)O)cc1CCC(=O)O` [Example 83, 5-[3-[2-(1-Carboxy)ethyl]-4-[3-[2-ethyl-4-(4-fluorophenyl)-5-hydroxyphenoxy]propoxy]phenyl]-4-pentynoic acid disodium salt 0.4 hydrate], with 0.0661 nM; and `CCc1cc(-c2ccc(F)cc2)c(O)cc1OCCCCCC(c1ccc(OCC(=O)O)cc1)c1nn[nH]n1` (centres unmarked) [Example 85, 1-(4-(Carboxymethoxy)phenyl)-1-(1H-tetrazol-5-yl)-6-(2-ethyl-4-(4-fluorophenyl)-5-hydroxyphenoxy)hexane], with 0.245 nM.

As to `CCc1cc(-c2ccc(F)cc2)c(O)cc1OCCCOc1ccccc1/C=C/C(=O)O` [Example 87, 3-(2-(3-(2-Ethyl-4-(4-fluorophenyl)-5-hydroxyphenoxy)propoxy)phenyl)-E-propenoic acid], in experiment [3], the Ki was 9.55 nM. Still for that read-out and setting: with `CCc1cc(-c2ccc(F)cc2)c(O)cc1OCCCOc1ccccc1/C=C(\C)C(=O)O` [Example 88, 3-(2-(3-(2-Ethyl-4-(4-fluorophenyl)-5-hydroxyphenoxy)propoxy)phenyl)-2-methyl-E-propenoic acid] the figure was 5.01 nM; with `CCc1cc(-c2ccc(F)cc2)c(O)cc1OCCCOc1ccccc1CCc1nnn[nH]1` [Example 89, 5-(2-(2-(3-(2-Ethyl-4-(4-fluorophenyl)-5-hydroxyphenoxy)propoxy)phenyl)ethyl)-1H-tetrazole], 14.1 nM.

Regarding `CCc1cc(-c2ccc(F)cc2)c(O)cc1OCCCOc1cc(OCCCCC(=O)O)ccc1CCC(=O)O` [Example 90, 3-(2-(3-(2-Ethyl-4-(4-fluorophenyl)-5-hydroxyphenoxy)propoxy)-4-(4-carboxybutyloxy)phenyl)propionic acid], the Ki in experiment [3] is 20.9 nM. Take `CCc1cc(-c2ccc(F)cc2)c(O)cc1OCCCOc1cccc2c1CCC(=O)O2` [Example 91, 5-[3-[4-(4-Fluorophenyl)-2-ethyl-5-hydroxyphenoxy]propoxy]-3,4-dihydro-2H-1-benzopyran-2-one]: the Ki in experiment [3] was 0.525 nM. Still for that read-out and setting: with `CCc1cc(-c2ccc(F)cc2)c(O)cc1OCCCOc1cccc(CCC(=O)O)c1` [Example 92, 3-(3-{3-[2-Ethyl-4-(4-fluorophenyl)-5-hydroxyphenyloxy]propoxy}phenyl)propanoic acid] the figure was 8.32 nM; with `CCCc1cc(CCC(=O)O)ccc1OCCCOc1cc(O)c(-c2ccc(F)cc2)cc1CC` [Example 94, 3-(4-{3-[2-Ethyl-4-(4-fluorophenyl)-5-hydroxyphenyloxy]propoxy}-3-propylphenyl)propanoic acid], 20.9 nM.

Turning to `CCCc1c(CCC(=O)O)cccc1OCCCOc1cc(O)c(-c2ccc(F)cc2)cc1CC` [Example 95, 3-(3-{3-[2-Ethyl-4-(4-fluorophenyl)-5-hydroxyphenyloxy]propoxy}-2-propylphenyl)propanoic acid], the Ki in experiment [3] is 5.5 nM. The same measure, in the same setting: with `CCCc1c(CCC(=O)O)cccc1OCCCOc1cc(O)c(-c2ccccc2)cc1CC` [Example 96, disodium salt] the figure was 25.1 nM. For `CCc1cc(-c2ccc(F)cc2)c(O)cc1OCCCOc1cccc(C(=O)c2ccccc2C(=O)O)c1` [Example 97, 2-[3-[3-[2-Ethyl-5-hydroxy-4-(4-fluorophenyl)phenoxy]propoxy]benzoyl]benzoic acid disodium salt hemihydrate], the “pKi (mean -log Ki)” value in experiment [3] (inhibition of [3H]-LTB4 binding, guinea pig lung membranes, mean of n experiments, ~140 pM [3H]-LTB4, 45 minutes, 30° C., pH 6.5) turned out to be 7.67. On to `CCCc1c(OCCCOc2cc(O)c(-c3ccc(F)cc3)cc2CC)cccc1Oc1ccccc1C(=O)O` [sodium salt], for which, in experiment [3], the Ki was 5.62 nM. Same read-out and setting: with `CCCc1ccc(CCC(=O)O)cc1OCCCOc1cc(O)c(-c2ccc(F)cc2)cc1CC` [sodium salt] the figure was 102 nM.
